According to PMC8765781, “A platform of assays for the discovery of anti-Zika small-molecules with activity in a 3D-bioprinted outer-blood-retina model” (PLoS ONE, 2022):
Read-outs that look alike come from different tables or passages of the source.

Experiments:
[1] = test system: ZIKV-RLuc (Cambodian strain FSS13025); experiment: microbe, parasite or virus in culture; assay type: cell-based, Zika virus
[2] = Zika virus, Vero, read-out: Log AC50 (M) (converted)

Row | Compound | AC50 [1] | CC-v2 (curve class classification v2 of the dose response curve) [1] | Efficacy (difference between neutral response and maximum compound response) [1] | Log AC50 (M) [1] | Max Resp (difference between neutral response and compound response for highest compound concentration) [1] | AC50 (Vero cells) | Log AC50 (M) (Vero cells) | AC50 ([1]; Zika virus, Vero) | AC50 [1, 2]
1 | O=C(Nc1ccc([N+](=O)[O-])cc1Cl)c1cc(Cl)ccc1O [NCGC00015735-11] | 3.62e-07 M | -1.1 | -106.368 | -6.4408 | -100.429 | 0.362 µM | -6.4408 M |  | 
2 | CCCN(CC1CC1)c1nc(C)nc(Nc2c(Cl)cc(Cl)cc2Cl)c1Cl [NCGC00015737-02] |  | -3 | -116.403 |  | -99.557 | 36.9 µM | -4.4327 M | 3.69e-05 M | 3.69e-05 M
3 | C/C(=C\CO)CC/C=C(\C)CCC(O)C(C)(O)CCCC(C)(O)CCCC(C)(O)CCCC(C)(O)CCCC(C)(O)CCCC(C)(O)CCCC(C)(C)O (stereo not drawn) [NCGC00381040-01] |  | -1.1 | -92.604 |  | -99.402 | 1.44 µM | -5.8408 M | 1.44e-06 M | 1.44e-06 M
4 | CC(C)(O)/C=C\C(=O)[C@](C)(O)[C@H]1[C@H](O)C[C@]2(C)[C@@H]3CC=C4[C@@H](C=C(O)C(=O)C4(C)C)[C@]3(C)C(=O)C[C@@]12C [NCGC00014911-01] |  | -1.1 | -103.985 |  | -99.739 | 3.29 µM | -5.4827 M | 3.29e-06 M | 3.29e-06 M
5 | COc1cc(C(=O)NC2CCN(C)CC2)ccc1Nc1ncc2c(n1)N(C1CCCC1)CCC(=O)N2C(C)C [NCGC00346965-01] |  | -2.4 | -47.886 |  | -47.265 | 13.1 µM | -4.8827 M | 1.31e-05 M | 1.31e-05 M
6 | Cc1c(Cn2c(C)nc3c(C(=O)O)cc(N4CCOCC4)cc32)cccc1C(F)(F)F [NCGC00345796-01] |  | -2.2 | -74.499 |  | -73.923 | 14.7 µM | -4.8327 M | 1.47e-05 M | 1.47e-05 M
7 | C[S+]([O-])c1ccc(-c2nc(-c3ccc(F)cc3)c(-c3ccncc3)[nH]2)cc1 (stereo not drawn) [NCGC00025035-05] |  | -2.1 | -107.599 |  | -87.79 | 47.9 µM | -4.3199 M | 4.79e-05 M | 4.79e-05 M
8 | C=CC(=O)N1CCC[C@@H](n2nc(-c3ccc(Oc4ccccc4)cc3)c3c(N)ncnc32)C1 [NCGC00187912-02] |  |  | -91.422 |  | -83.345 | 9.28 µM | -5.0327 M | 9.28e-06 M | 9.27e-06 M
9 | O=c1[nH]c2ccccc2n1C1CCN(CCCC(c2ccc(F)cc2)c2ccc(F)cc2)CC1 [NCGC00015802-18] |  | -2.1 | -98.365 |  | -96.477 | 20.8 µM | -4.6827 M | 2.08e-05 M | 2.08e-05 M
10 | CNCCC(Oc1ccc(C(F)(F)F)cc1)c1ccccc1 (stereo not drawn) [NCGC00015428-15] |  | -2.2 | -78.657 |  | -76.003 | 16.5 µM | -4.7827 M | 1.65e-05 M | 1.65e-05 M
11 | Cc1ccc(C(N)=O)cc1Nc1nccc(-c2cn(C(C)C)c3cnccc23)n1 [NCGC00263020-01] |  | -1.1 | -104.089 |  | -98.725 | 7.37 µM | -5.1327 M | 7.37e-06 M | 7.37e-06 M
12 | CN(C)c1ccc(C(=O)NCCCCCCC(=O)NO)cc1 [NCGC00263617-05] |  | -1.1 | -93.524 |  | -92.631 | 10.4 µM | -4.9827 M | 1.04e-05 M | 1.04e-05 M
13 | O=C(Nc1ccc([N+](=O)[O-])cc1Cl)c1cc(Cl)ccc1O [NCGC00015735-12] | 1.04e-06 M | -1.1 | -94.574 | -5.9827 | -99.55 | 1.04 µM | -5.9827 M |  | 
14 | COc1cc([C@@H]2c3cc4c(cc3[C@H](O)[C@H]3COC(=O)[C@@H]23)OCO4)cc(OC)c1OC [NCGC00161923-04] |  | -1.2 | -67.755 |  | -62.284 | 2.93 µM | -5.5327 M | 2.93e-06 M | 2.93e-06 M
15 | COC1C(O)C(OC2CCC3(C)C(CCC4C3CCC3(C)C(C5=CC(=O)OC5)CCC43O)C2)OC(C)C1OC1OC(COC2OC(CO)C(O)C(O)C2O)C(O)C(O)C1O (stereo not drawn) [NCGC00380220-01] |  | -1.1 | -95.552 |  | -99.662 | 1.29 µM | -5.8908 M | 1.29e-06 M | 1.29e-06 M
16 | Oc1cc(O)cc(CCCCC/C=C\CCCCCCCc2cc(O)cc(O)c2)c1 [NCGC00385180-01] |  | -3 | -110.94 |  | -89.374 |  | -4.4327 M | 3.69e-05 M | 3.69e-05 M
17 | CC#C[C@]1(O)CC[C@H]2[C@@H]3CCC4=CC(=O)CCC4=C3[C@@H](c3ccc(N(C)C)cc3)C[C@@]21C [NCGC00025179-12] |  | -3 | -109.046 |  | -95.447 | 26.1 µM | -4.5827 M | 2.61e-05 M | 2.61e-05 M
18 | CN(C)Cc1c(C(=O)NCCOc2ccc(C(=O)NO)cc2)oc2ccccc12 [NCGC00346486-01] |  | -1.1 | -96.645 |  | -98.785 | 9.28 µM | -5.0327 M | 9.28e-06 M | 9.27e-06 M
19 | CCC(=C/[C@H](C)C/C=C/C(C)=C/[C@@H](C)C(=O)[C@@H](C)[C@H](O)[C@@H](C)C/C(C)=C/C(=O)O)/C=C/[C@@H]1OC(=O)C=C[C@@H]1C [NCGC00162440-02] |  | -1.2 | -71.611 |  | -66.361 | 0.00476 µM | -8.3224 M | 4.76e-09 M | 4.76e-09 M
20 | CC(C)C[C@H](NC(=O)[C@H](CCc1ccccc1)NC(=O)CN1CCOCC1)C(=O)N[C@@H](Cc1ccccc1)C(=O)N[C@@H](CC(C)C)C(=O)[C@@]1(C)CO1 [NCGC00249613-01] |  | -1.1 | -103.056 |  | -99.72 | 2.33 µM | -5.6327 M | 2.33e-06 M | 2.33e-06 M
21 | C=C1[C@@H](O)[C@]2(O)OC[C@]34C2[C@]2(C)C(C[C@H]3OC(=O)[C@H](O)[C@@]14O)C(C)=CC(=O)[C@H]2O (stereo partly drawn) [NCGC00347491-02] |  | -2.2 | -33.078 |  | -33.995 | 7.23 µM | -5.1408 M | 7.23e-06 M | 7.23e-06 M
22 | C[C@H]1O[C@@H](O[C@H]2[C@@H](O)C[C@H](O[C@H]3[C@@H](O)C[C@H](O[C@H]4CC[C@@]5(C)[C@H](CC[C@@H]6[C@@H]5C[C@@H](O)[C@]5(C)[C@@H](C7=CC(=O)OC7)CC[C@]65O)C4)O[C@@H]3C)O[C@@H]2C)C[C@H](O)[C@@H]1O [NCGC00090797-01] |  | -1.1 | -107.599 |  | -98.918 | 0.465 µM | -6.3327 M | 4.65e-07 M | 4.65e-07 M
23 | COc1cc(C(C)C)c2c(c1)[S+](=O)([O-])N(COc1cc(=O)n3cccc(OCCN4CCCCC4)c3n1)C2=O [NCGC00167751-03] |  | -2.1 | -105.384 |  | -99.738 | 23.3 µM | -4.6327 M | 2.33e-05 M | 2.33e-05 M
